Measured values: US12637469B2, “1H-pyrazole derivative and application thereof as dual target inhibitor of Syk and VEGFR2” (Ocumension Therapeutics (Suzhou) Co., Ltd., priority 2020, dated 2026)

Key:
[1] = molecular target: T1, FGFR1(h) (Homo sapiens, UniProt P11362); test: Eurofins KinaseProfiler off-target kinase inhibition; assay type: biochemical
T1 construct: purchased Eurofins (KinaseProfiler platform)
Method: (§1) In order to investigate the specificity of the inhibition of the target by the compound, in this study, the activity and selectivity of test compound 1 on the off-target kinases in related pathways were tested on the Eurofins kinaseProfiler™ platform, and compound screening and analysis were conducted using IC50 value as the indicator.
(§2) Compound 1 was detected for each selected kinase using the standard Eurofins Kinase Profiler™ protocol, which followed the relevant standard operating procedures. The IC50 values of the inhibitory activity of the test compound 1 on 67 kinases including Abl(h), B-Raf(h), BTK(h) and JAK(h) were analyzed.

[2] = molecular target: T2, MSK1(h) (Homo sapiens, UniProt O75582); test: as above; assay type: biochemical
T2 construct: purchased Eurofins (KinaseProfiler service)
Method: as §1, §2

[3] = molecular target: T3, MAP4K4(h) (Homo sapiens, UniProt O95819); test: as above; assay type: biochemical
T3 construct: purchased Eurofins (KinaseProfiler service)
Method: as §1, §2

[4] = molecular target: T4, Ros(h) (Homo sapiens, UniProt P08922); test: as above; assay type: biochemical
T4 construct: purchased Eurofins (KinaseProfiler platform)
Method: as §1, §2

[5] = molecular target: T5, PDGFRα(h) (Homo sapiens, UniProt P16234); test: as above; assay type: biochemical
T5 construct: purchased Eurofins (KinaseProfiler service)
Method: as §1, §2

[6] = molecular target: T6, mTOR(h) (Homo sapiens, UniProt P42345); test: as above; assay type: biochemical
T6 construct: purchased Eurofins (KinaseProfiler service)
Method: as §1, §2

[7] = molecular target: T7, SAPK4(h) (Homo sapiens, UniProt O15264); test: as above; assay type: biochemical
T7 construct: purchased Eurofins (KinaseProfiler platform)
Method: as §1, §2

[8] = molecular target: T8, CDK2/cyclinA(h) (Homo sapiens, UniProt P24941); test: as above; assay type: biochemical
T8 construct: purchased Eurofins (KinaseProfiler platform)
Method: as §1, §2

[9] = molecular target: T9, Rse(h) (Homo sapiens, UniProt Q06418); test: as above; assay type: biochemical
T9 construct: purchased Eurofins (KinaseProfiler platform)
Method: as §1, §2

[10] = molecular target: T10, ACTR2(h) (Homo sapiens, UniProt P27037); test: as above; assay type: biochemical
T10 construct: purchased Eurofins (KinaseProfiler platform)
Method: as §1, §2

[11] = molecular target: T11, FAK(h) (Homo sapiens, UniProt Q05397); test: as above; assay type: biochemical
T11 construct: purchased Eurofins (KinaseProfiler service)
Method: as §1, §2

[12] = molecular target: T12, Yes(h) (Homo sapiens, UniProt P07947); test: as above; assay type: biochemical
T12 construct: purchased Eurofins (KinaseProfiler platform)
Method: as §1, §2

[13] = molecular target: T13, CYP2D6 (Homo sapiens, UniProt P10635); test: Inhibition of cytochrome P450 enzymes in human liver microsomes (LC-MS/MS); assay type: in vitro ADME
T13 construct: human liver microsome working solution was prepared; from tissue; host or cells: human liver microsomes
Method: (§3) In order to investigate the activity of the compound on human liver microsomal CYP450 enzyme, Liquid Chromatography-Mass Spectrometry/Mass Spectrometry (LC-MS/MS) method was used in this study to determine the inhibitory effect of compound 1 on five main subtypes (CYP1A2, 2C9, 2C19, 2D6, 3A4) of human hepatocyte CYP450 enzyme, and compound screening and analysis were conducted using IC50 value as the indicator.
(§4) • 1) A test compound and a standard inhibitor working solution (100×) were prepared; • 2) microsomes were taken out of a −80° C. freezer, thawed on ice, labeled with the date, and put back in the freezer immediately after use; • 3) 20 microliters of matrix solution was added to the corresponding wells; • 4) 20 microliters of phosphate buffered saline was added to the blank wells; • 5) 2 microliters of the test compound and positive control working solution were added to the corresponding wells; • 6) 2 microliters of solvent was added to each of the inhibitor-free wells and the blank wells; • 7) human liver microsome working solution was prepared; • 8) 158 microliters of HLM working solution was added to all wells of the incubation plate; • 9) the plate was heated in a 37° C. water bath for about 10 minutes; • 10) NADPH cofactor solution was prepared; • 11) 20 microliters of NADPH cofactor was added to all of the incubation wells; • 12) all CYPs were subjected to mixed culture in a 37° C. water bath for 10 minutes; • 13) at a certain point in time, the reaction was stopped by adding 400 microliters of cold solution (200 ng/mL of tolbutamide in acetonitrile and 200 ng/mL of Labetalol in acetonitrile); • 14) the samples were centrifuged at 4000 rpm for 20 minutes to precipitate proteins; • 15) 200 microliters of supernatant was transferred into 100 microliters of high performance liquid chromatography water, and shaked for 10 minutes; • 16) LC/MS/MS analysis was started.

[14] = molecular target: T14, CYP1A2 (Homo sapiens, UniProt P05177); test: as above; assay type: in vitro ADME
T14 construct: human liver microsome working solution was prepared; from tissue; host or cells: human liver microsomes
Method: as §3, §4

[15] = molecular target: T15, CYP2C9 (Homo sapiens, UniProt P11712); test: as above; assay type: in vitro ADME
T15 construct: human liver microsome working solution was prepared; from tissue; host or cells: human liver microsomes
Method: as §3, §4

[16] = molecular target: T16, CYP3A4 (Homo sapiens, UniProt P08684); test: as above; assay type: in vitro ADME
T16 construct: human liver microsome working solution was prepared; from tissue; host or cells: human liver microsomes
Method: as §3, §4

[17] = molecular target: VEGFR2 kinase (KDR enzyme) (Homo sapiens, UniProt P35968); test: In vitro inhibitory effect on VEGFR2 kinase (ADP-Glo enzymatic experiment); assay type: biochemical; conditions: read-out: IC50 (nM) for inhibition of VEFGR2 enzyme
Method: The VEGFR2 kinase assay kit is intended for measuring VEGFR2 kinase activity using Kinase-Glo®MAX as a detection reagent, and compound screening and analysis were conducted using the IC50 value of the compound as an indicator.
The ADP-GLO™ Kinase Assay is an analytical reaction in which a luminescent kinase is used to determine the adenosine diphosphate formed by the kinase; ADP is converted to ATP, i.e., an optical signal is generated by Ultra-Glo™ luciferase. The optical signal is positively correlated with ADP quantity and kinase activity. This assay is ideal for determining the activity of the compound, making it ideal for primary screening and kinase selectivity analysis. The ADP-Glo™ Kinase Assay can be used to monitor the activity of virtually any ADP-producing enzyme such as a kinase orATPase: • 1) The enzyme, substrate, ATP and inhibitor were diluted in a kinase buffer; • 2) 384-well plate: 1 μL of inhibitor or (5% dimethyl sulfoxide solution), 2 μL of KDR enzyme, 2 μL of matrix/ATP mixture; • 3) the mixture was incubated at room temperature for 60 minutes; • 4) 5 μL of ADP-GLO™ reagent was added; • 5) the mixture was incubated for 40 minutes at room temperature; • 6) 10 μL of kinase detection reagent was added; • 7) the mixture was incubated at room temperature for 30 minutes; • 8) the luminescence was recorded (integration time 0.5-1 sec). The data was shown in relative light units (rlu), which was directly related to the amount of […]. There was correlation between the percent of the conversion from ATP to ADP for each kinase amount and the corresponding signal-to-background ratio. • 9) Data analysis: (a) KDR enzyme was titrated with 50 μM of ATP, and the luminescent signal produced by KDR enzyme was shown; (b) staurosporine dose response was generated with 1.5 ng of KDR to determine the IC50 value of the inhibitor.

T4 sequence (P08922 28-2347): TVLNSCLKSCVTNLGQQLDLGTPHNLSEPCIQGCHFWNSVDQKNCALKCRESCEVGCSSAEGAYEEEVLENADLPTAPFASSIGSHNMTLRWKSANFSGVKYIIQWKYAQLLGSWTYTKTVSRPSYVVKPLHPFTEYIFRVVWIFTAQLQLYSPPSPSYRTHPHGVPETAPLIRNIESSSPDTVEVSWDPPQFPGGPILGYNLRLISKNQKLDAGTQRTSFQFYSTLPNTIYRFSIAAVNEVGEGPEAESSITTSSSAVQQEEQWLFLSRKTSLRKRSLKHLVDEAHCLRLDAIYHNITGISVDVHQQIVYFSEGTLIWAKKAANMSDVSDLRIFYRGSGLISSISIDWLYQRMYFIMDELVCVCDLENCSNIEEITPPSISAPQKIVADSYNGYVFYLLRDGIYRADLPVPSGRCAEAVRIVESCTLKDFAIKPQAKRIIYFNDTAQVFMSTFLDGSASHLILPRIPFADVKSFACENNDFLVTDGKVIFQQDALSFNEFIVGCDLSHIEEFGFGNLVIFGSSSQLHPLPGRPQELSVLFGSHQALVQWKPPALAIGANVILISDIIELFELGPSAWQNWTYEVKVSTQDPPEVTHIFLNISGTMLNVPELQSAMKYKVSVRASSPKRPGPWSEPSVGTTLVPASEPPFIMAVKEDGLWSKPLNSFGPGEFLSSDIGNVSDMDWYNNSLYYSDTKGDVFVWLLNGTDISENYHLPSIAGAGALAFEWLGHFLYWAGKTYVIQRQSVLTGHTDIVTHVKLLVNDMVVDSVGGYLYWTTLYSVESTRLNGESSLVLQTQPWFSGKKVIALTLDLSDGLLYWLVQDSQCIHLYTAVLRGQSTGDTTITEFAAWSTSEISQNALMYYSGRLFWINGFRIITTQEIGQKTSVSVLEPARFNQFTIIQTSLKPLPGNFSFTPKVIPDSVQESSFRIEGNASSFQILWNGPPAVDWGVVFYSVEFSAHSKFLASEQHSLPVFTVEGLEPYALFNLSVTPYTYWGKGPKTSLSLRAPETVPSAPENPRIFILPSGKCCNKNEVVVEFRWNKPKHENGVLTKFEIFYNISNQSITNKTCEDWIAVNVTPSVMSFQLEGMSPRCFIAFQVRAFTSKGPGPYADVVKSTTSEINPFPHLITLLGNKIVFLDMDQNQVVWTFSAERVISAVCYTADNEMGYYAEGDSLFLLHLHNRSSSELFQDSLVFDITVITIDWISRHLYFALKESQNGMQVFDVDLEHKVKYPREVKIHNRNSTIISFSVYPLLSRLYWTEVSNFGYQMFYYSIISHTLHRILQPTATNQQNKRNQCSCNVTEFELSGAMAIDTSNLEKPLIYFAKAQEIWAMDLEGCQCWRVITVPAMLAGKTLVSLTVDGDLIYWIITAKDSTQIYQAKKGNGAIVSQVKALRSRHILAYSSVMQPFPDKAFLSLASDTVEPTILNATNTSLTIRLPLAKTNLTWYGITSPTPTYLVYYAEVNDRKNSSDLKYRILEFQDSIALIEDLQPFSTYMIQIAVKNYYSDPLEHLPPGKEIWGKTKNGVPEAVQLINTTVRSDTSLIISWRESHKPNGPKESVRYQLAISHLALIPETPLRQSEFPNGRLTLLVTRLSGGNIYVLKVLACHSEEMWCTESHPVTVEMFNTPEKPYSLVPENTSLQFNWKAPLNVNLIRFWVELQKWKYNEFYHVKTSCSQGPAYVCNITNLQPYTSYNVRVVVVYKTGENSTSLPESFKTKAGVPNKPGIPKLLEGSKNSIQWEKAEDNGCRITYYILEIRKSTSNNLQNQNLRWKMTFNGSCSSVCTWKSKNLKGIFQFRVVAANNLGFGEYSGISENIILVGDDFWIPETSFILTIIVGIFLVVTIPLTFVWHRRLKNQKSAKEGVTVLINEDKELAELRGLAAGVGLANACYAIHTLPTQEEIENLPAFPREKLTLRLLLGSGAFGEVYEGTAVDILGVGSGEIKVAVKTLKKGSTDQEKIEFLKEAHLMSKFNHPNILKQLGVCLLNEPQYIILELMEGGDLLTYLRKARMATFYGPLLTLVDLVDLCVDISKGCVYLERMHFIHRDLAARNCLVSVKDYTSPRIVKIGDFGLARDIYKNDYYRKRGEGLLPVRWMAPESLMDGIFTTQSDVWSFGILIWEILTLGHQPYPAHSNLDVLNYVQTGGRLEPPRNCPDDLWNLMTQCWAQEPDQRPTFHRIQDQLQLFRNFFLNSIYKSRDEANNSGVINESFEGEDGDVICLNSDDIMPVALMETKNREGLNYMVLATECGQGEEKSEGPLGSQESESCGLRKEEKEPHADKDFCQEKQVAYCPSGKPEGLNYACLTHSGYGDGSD
T7 sequence (O15264 whole entry): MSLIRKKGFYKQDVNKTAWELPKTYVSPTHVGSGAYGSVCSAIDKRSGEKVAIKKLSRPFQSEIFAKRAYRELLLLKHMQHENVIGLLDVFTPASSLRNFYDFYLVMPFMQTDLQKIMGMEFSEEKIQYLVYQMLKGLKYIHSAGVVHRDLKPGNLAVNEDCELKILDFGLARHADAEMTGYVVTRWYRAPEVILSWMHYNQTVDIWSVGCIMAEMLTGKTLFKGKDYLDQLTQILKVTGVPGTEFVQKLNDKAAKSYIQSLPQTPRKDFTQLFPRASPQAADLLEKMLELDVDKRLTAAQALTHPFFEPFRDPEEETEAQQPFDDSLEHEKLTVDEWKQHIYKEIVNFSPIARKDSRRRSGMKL
T9 sequence (Q06418 41-890): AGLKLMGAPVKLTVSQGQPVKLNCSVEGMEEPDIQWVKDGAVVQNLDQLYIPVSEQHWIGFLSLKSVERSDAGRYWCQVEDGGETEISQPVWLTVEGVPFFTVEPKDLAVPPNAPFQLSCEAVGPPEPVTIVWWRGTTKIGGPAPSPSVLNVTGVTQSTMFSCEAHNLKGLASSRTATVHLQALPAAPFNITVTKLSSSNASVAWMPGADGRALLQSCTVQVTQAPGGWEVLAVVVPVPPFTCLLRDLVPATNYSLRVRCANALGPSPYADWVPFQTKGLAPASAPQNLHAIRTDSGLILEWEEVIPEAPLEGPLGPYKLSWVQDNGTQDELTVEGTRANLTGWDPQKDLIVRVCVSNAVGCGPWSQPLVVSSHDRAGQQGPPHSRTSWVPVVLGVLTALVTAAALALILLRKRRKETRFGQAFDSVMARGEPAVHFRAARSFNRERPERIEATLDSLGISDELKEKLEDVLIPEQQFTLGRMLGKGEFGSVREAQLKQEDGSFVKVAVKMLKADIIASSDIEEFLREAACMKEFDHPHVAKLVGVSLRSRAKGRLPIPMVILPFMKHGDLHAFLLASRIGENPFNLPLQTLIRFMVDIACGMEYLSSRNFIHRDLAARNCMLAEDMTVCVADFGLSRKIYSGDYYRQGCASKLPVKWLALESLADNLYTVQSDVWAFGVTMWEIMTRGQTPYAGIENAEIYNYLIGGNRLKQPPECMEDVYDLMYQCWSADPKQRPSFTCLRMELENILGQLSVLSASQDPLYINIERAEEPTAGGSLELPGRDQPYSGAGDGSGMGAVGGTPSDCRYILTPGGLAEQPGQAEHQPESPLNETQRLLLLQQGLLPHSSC
T1 sequence (P11362 22-822): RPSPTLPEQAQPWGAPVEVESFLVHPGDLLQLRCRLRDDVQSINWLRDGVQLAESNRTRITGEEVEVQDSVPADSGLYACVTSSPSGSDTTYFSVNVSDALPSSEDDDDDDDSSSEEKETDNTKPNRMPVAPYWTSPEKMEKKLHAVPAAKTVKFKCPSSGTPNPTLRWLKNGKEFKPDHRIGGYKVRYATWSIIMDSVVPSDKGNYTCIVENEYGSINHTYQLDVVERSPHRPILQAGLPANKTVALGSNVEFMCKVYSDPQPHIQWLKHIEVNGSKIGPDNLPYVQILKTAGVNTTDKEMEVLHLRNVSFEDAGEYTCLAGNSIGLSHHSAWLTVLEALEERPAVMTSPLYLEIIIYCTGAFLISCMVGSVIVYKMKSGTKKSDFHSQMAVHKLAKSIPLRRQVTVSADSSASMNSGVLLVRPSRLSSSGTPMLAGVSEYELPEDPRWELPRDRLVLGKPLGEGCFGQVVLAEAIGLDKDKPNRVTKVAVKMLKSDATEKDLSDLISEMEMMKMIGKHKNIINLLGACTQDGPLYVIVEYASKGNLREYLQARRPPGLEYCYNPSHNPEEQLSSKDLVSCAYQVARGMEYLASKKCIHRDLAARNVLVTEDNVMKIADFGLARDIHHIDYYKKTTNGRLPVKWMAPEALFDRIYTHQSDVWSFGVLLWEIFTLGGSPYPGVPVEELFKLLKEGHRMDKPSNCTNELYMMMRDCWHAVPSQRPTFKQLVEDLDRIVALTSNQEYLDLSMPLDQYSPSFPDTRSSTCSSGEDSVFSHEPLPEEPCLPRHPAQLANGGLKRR
T10 sequence (P27037 20-513): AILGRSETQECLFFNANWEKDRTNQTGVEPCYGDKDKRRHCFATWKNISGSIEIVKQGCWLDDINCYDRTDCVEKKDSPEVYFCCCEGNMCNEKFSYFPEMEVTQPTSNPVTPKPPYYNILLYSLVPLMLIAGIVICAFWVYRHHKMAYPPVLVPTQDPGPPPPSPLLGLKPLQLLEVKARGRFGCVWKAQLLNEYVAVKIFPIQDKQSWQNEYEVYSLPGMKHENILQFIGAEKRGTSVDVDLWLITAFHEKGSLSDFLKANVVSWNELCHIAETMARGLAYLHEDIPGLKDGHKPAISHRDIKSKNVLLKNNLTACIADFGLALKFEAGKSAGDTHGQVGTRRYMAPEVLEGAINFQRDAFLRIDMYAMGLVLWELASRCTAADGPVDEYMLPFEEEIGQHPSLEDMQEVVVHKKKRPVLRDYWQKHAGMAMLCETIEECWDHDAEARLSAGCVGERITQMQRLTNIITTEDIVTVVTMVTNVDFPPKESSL

An IC50 [1] of 847 nM, an IC50 [2] greater than 10000 nM and an IC50 [3] of 63 nM were found for `c1cn2c(n1)c(Nc1ccc(N3CCOCC3)cc1)nc1ccc(-c3cn[nH]c3)cc12` [Compound 1] in this work. It also gave an IC50 [4] greater than 10000 nM, an IC50 [5] of 2700 nM and an IC50 [6] greater than 10000 nM. It also gave an IC50 [7] greater than 10000 nM, an IC50 [8] greater than 10000 nM and an IC50 [9] greater than 10000 nM. It also gave an IC50 [10] greater than 10000 nM, an IC50 [11] of 469 nM and an IC50 [12] of 204 nM. It also gave an IC50 [13] greater than 50 µM, an IC50 [14] greater than 50 nM and an IC50 [15] greater than 50 nM. It also gave an IC50 [16] greater than 50 nM and an IC50 [17] of 23 nM.
